Assay results published in patent US8664225B2, “1-[2-(2,4-dimethylphenylsulfanyl)-phenyl] piperazine as a compound with combined serotonin reuptake, 5-HT3 and 5-HT1A activity for the treatment of pain or residual symptoms in depression relating to sleep and cognition” (H. Lundbeck A/S, priority 2007, dated 2014).
Like-named read-outs stand apart in the source and are kept apart here.

Key:
[1] = physchem; settings: water
[2] = test system: Sprague-Dawley rats; assay: Contextual fear conditioning in rats; type: in vivo, rat; settings: 1, 5 and 10 mg/kg s.c. 1 h prior to acquisition, any dose tested
Description: The compound administered in the present experiment was 1-[2-(2,4-dimethylphenylsulfanyl)phenyl]piperazine HBr salt.
We have studied the effect of the compound on acquisition, consolidation and recall of contextual fear conditioning in rats. In the fear conditioning paradigm animals learn to associate a neutral environment (context, the training chamber, CS) with an aversive experience (an electrical foot-shock, US). During re-exposure to the training chamber, animals express a freezing behaviour, which is taken as a direct measure of the fear-related memory [Pavlov J. Biol. Sci., 15, 177-182, 1980]. […] Neurosci., 106, 274-285, 1992].
Adult male Sprague-Dawley rats (weighing 250-300 g at time of training) from Charles River Laboratories, housed two per cage under a 12 h light/dark cycle, were used. Food and water were available ad libitum. […]
During the acquisition animals were allowed to freely explore the novel environment for a 1 min habituation period, which co-terminated with one inescapable foot-shock (unconditioned stimulus, US) through the electrifiable grid floor. […] Freezing behaviour was scored during the first 58 s (pre-shock acquisition; experimenter blinded to groups) to determine baseline-freezing responses to the context. […] Freezing behaviour was scored during the whole test period with the experimenter blinded to groups and presented as percent of total test period.

[3] = test system: extra-cellular levels of ACh; assay: Extracellular acetylcholine levels in brain of freely moving rats (microdialysis); type: in vivo, rat; settings: 2.5-10 mg/kg s.c.
Method: The animals were administered 1-[2-(2,4-dimethylphenylsulfanyl)phenyl]piparazine, HBr salt.
Male Sprague-Dawley rats, initially weighing 275-300 g, were used. The animals were housed under a 12-hr light/dark cycle under controlled conditions for regular in-door temperature (21±2° C.) and humidity (55±5%) with food and tap water available ad libitum.
Rats were anaesthetised with hypnorm/dormicum (2 ml/kg) and intracerebral guide cannulas (CMA/12) were stereotaxically implanted into the brain, aiming at positioning the dialysis probe tip in the ventral hippocampus (co-ordinates: 5.6 mm posterior to bregma, lateral −5.0 mm, 7.0 mm ventral to dura) or in the prefrontal cortex (co-ordinates: 3.2 mm anterior to bregma; lateral, 0.8 mm; 4.0 mm ventral to dura). […] The body temperature of the animals was monitored by rectal probe and maintained at 37° C. […]
The compound dissolved in 10% HPbetaCD and injected subcutaneously (2.5-10 mg/kg). Doses are expressed as mg salt/kg body weight. […]
Concentration of acetylcholine (ACh) in the dialysates was analysed by means of HPLC with electrochemical detection using a mobile phase consisting of 100 mM disodium hydrogenphosphate, 2.0 mM octane sulfonic acid, 0.5 mM tetramethyl-ammonium chloride and 0.005% MB (ESA), pH 8.0. […] The latter was detected electrochemical by using a platinum electrode (Analytical cell: ESA, model 5040). […]

[4] = test system: rat; assay: Chronic constriction nerve injury model; type: in vivo; settings: 7.9 mg/kg s.c., 60 minutes, FIG. 26
Method: This model of neuropathic pain involves the application of four loose ligations around one sciatic nerve of the rat over a period of time to develop both hyperalgesia and allodynia. The effect of test compounds in this test is measured as the time to withdraw the paw upon a thermal stimuli.

[5] = Hygroscopicity (water absorption at relative humidity); type: physicochemical
Description: Some compounds are hygroscopic, i.e. the absorb water when exposed to humidity. Hygroscopicity is generally regarded as an undesired property for compounds that are to be presented in a pharmaceutical formulation, in particular in a dry formulation, such as tablets. In one embodiment, the invention provides the use of crystals with low hygroscopicity. For oral dosage forms using crystalline active ingredients it is also beneficial if said crystals are well-defined. In the present context, the term “well-defined” in particular means that the stoichiometry is well-defined, i.e. that the ratio between the ions forming the salt is the ratio between small integers, such as 1:1, 1:2, 2:1, 1:1:1, etc. In one embodiment, the compound I forms well-defined crystals.

[6] = Solubility in water

Cc1ccc(Sc2ccccc2N2CCNCC2)c(C)c1.O=C(O)C(O)C(O)C(=O)O [L-(+)-tartrate, 1-[2-(2,4-Dimethylphenylsulfanyl)-phenyl]piperazine (+)-tartaric acid] gave a solubility [1] of about 400 µg/mL.
Compound Br.Cc1ccc(Sc2ccccc2N2CCNCC2)c(C)c1 [alpha form of the hydrobromide, 1-[2-(2,4-Dimethylphenylsulfanyl)-phenyl]piperazine hydrobromide] has a solubility [1] of 2000 µg/mL.
In the case of Br.Cc1ccc(Sc2ccccc2N2CCNCC2)c(C)c1 [compound I (HBr salt), 1-[2-(2,4-dimethylphenylsulfanyl)phenyl]piperazine HBr salt], the “baseline freezing behaviour before the foot shock” value [2] is reported as “does not affect”, the “extra-cellular levels of ACh in prefrontal cortex” value ([3]; FIG. 19a) is reported as “significantly increased” and the “extra-cellular levels of ACh in ventral hippocampus” value ([3]; FIG. 19b) is reported as “significantly increased”. For the same compound, the “withdrawal latency following a thermal stimuli” value [4] was “significant and dose-dependant withdrawal latency”.
For Cc1ccc(Sc2ccccc2N2CCNCC2)c(C)c1 [crystalline base, 1-[2-(2,4-Dimethylphenylsulfanyl)-phenyl]piperazine], the “hygroscopicity (in words)” value [5] was “not hygroscopic”.
With Cc1ccc(Sc2ccccc2N2CCNCC2)c(C)c1 [fumarate, 1-[2-(2,4-Dimethylphenylsulfanyl)-phenyl]piperazine] the solubility in water [6] was 400 µg/mL.
With Br.Cc1ccc(Sc2ccccc2N2CCNCC2)c(C)c1 [gamma form of the hydrobromide, 1-[2-(2,4-Dimethylphenylsulfanyl)-phenyl]piperazine hydrobromide] the “water absorbed at 30% RH” value ([5]; 30% RH at room temperature) was “about 2%”.
For Br.Cc1ccc(Sc2ccccc2N2CCNCC2)c(C)c1 [hemi hydrate of the hydrobromide, 1-[2-(2,4-Dimethylphenylsulfanyl)-phenyl]piperazine hydrobromide], the water content ([5]; room temperature and 95% RH) was “about 3.7%”.
For Cc1ccc(Sc2ccccc2N2CCNCC2)c(C)c1.Cl [hydrochloride monohydrate, 1-[2-(2,4-Dimethylphenylsulfanyl)-phenyl]piperazine HCl], the solubility in water ([6]; HCl) was “about 2 mg/ml” and the “hygroscopicity (in words)” value [5] was “does not absorb further amount of water”.
In the case of Cc1ccc(Sc2ccccc2N2CCNCC2)c(C)c1.Cl [hydrochloride, 1-[2-(2,4-Dimethylphenylsulfanyl)-phenyl]piperazine hydrochloride], the solubility [1] is reported as 3000 µg/mL.
In the case of Cc1ccc(Sc2ccccc2N2CCNCC2)c(C)c1.O=C(O)/C=C\C(=O)O [maleate, 1-[2-(2,4-Dimethylphenylsulfanyl)-phenyl]piperazine Maleate], the solubility [1] is reported as about 1000 µg/mL.
In the case of CS(=O)(=O)O.Cc1ccc(Sc2ccccc2N2CCNCC2)c(C)c1 [mesylate, 1-[2-(2,4-Dimethylphenylsulfanyl)-phenyl]piperazine mesylate], the solubility [1] is reported as over 45000 µg/mL.
With Cc1ccc(Sc2ccccc2N2CCNCC2)c(C)c1.O=[N+]([O-])O [nitrate, 1-[2-(2,4-Dimethylphenylsulfanyl)-phenyl]piperazine nitrate] the solubility [1] was about 800 µg/mL.
Compound Cc1ccc(Sc2ccccc2N2CCNCC2)c(C)c1.O=P(O)(O)O [phosphate, 1-[2-(2,4-Dimethylphenylsulfanyl)-phenyl]piperazine phosphate] has a solubility [1] of about 1000 µg/mL.
For Cc1ccc(Sc2ccccc2N2CCNCC2)c(C)c1.O=S(=O)(O)O [sulphate, 1-[2-(2,4-Dimethylphenylsulfanyl)-phenyl]piperazine sulphate], the solubility [1] was about 100 µg/mL.
